# Experimental data reported in patent publication US10702525B1, “Pyrimidine derivatives as anti-diabetic agents” (UNITED ARAB EMIRATES UNIVERSITY, priority 2019, dated 2020).
# Key:
# [1] = test system: Streptozotocin-injected (STZ) diabetic rats; test: Fasting blood glucose level of STZ diabetic rats; format: in vivo, rat; conditions: for reduction in blood glucose level compared to control diabetic groups: 6 and 8 hours after treatment, n=6
# Description: These symptoms indicate the development of diabetes characterized by chronic and persistently elevated plasma glucose level. STZ induces diabetes by selectively destroying the insulin producing pancreatic endocrine cells. Decreased body weight in STZ-induced diabetic rats is believed to be caused by dehydration, and by breakdown and catabolism of fats and proteins. Increased catabolic reactions upon administering STZ result in muscle wasting, and subsequently, body weight loss.
# Compounds 81c, 81f, 82c, and 82d, synthesized as described in Examples 1, 2, 5, and 6 were orally administrated to the treated groups of diabetic rats at a dose of 1.0 μM/kg. Fasting glucose levels in treated and control rat blood were followed over 8.0 hours. […] Compounds 82c and 82d were also tested in vivo (FIGS. 1C, 1D). […] In FIGS. 1A-1D the results are means±SEM, where n=6 rats; *P<0.05, **P<0.01, and ***P<0.001 vs. the STZ diabetic control group.
# βTC6 cells [2] = test: Insulin secretion from βTC6 cell line (insulin Sandwich ELISA); format: cell-based, murine; conditions: for insulin secretion compared to the basal control: absence of glucose; for insulin secretion compared to the basal control / insulin secretion compared to basal insulin secretion and to insulin secretion in the presence of glucose: 10^−15 M, 10^−12 M and 10^−9 M; for insulin secretion compared to the basal control / insulin secretion compared to basal insulin secretion and to insulin secretion in the presence of glucose / glucose-stimulated insulin release compared to basal controls (summary statement): βTC6 cells; for insulin secretion compared to basal insulin secretion and to insulin secretion in the presence of glucose: presence of 2.8 mM glucose
# Description: Secretion of insulin by βTC6 cells was measured using the high range insulin Sandwich ELISA kit.
# βTC6 cells [3] = test: Glucose uptake assay (2-NBDG) in βTC6 cells; format: cell-based, murine; conditions: 10 μM sample, 450 μM 2-NBDG, ten minutes
# Description: The glucose uptake assay was performed with a cell-based assay kit by incubating 450 μM 2-[N-(7-nitrobenz-2-oxa-1,3-diaxol-4-yl)amino]-2-deoxyglucose (2-NBDG, a fluorescently labelled deoxyglucose analog) and a 10 μM sample of the reference drug or the test compound with βTC6 cells for ten minutes and subsequently measuring the fluorescence at excitation and emission wavelengths of 485 nm and 535 nm, respectively, with a TECAN infinite M200 micro plate reader.
# [4] = oral, 1.0 μM/kg, STZ diabetic rats
Compound,fasting blood glucose levels in diabetic rat models (summary statement) [1],anti-diabetic potency ranking ([1]; in vivo and in vitro results taken together),"reduction in blood glucose level compared to control diabetic groups [1, 4]","potency in reducing the blood glucose level ([1]; oral, 1.0 μM/kg, at 8 hours, STZ diabetic rats)",insulin secretion compared to the basal control (βTC6 cells [2]),insulin secretion compared to basal insulin secretion and to insulin secretion in the presence of glucose (βTC6 cells [2]),insulin secretion effect relative to exenatide (βTC6 cells [2]; βTC6 cell line),glucose-stimulated insulin release compared to basal controls (summary statement) (βTC6 cells [2]),glucose uptake compared to the standard reference exenatide (βTC6 cells [3]),melting point [°C],"effect on blood glucose levels (not statistically significant) ([1]; oral, 1.0 μM/kg, followed over 8.0 hours, STZ diabetic rats)"
"CN(CCO)c1ccnc(Cl)n1 [Compound 81c, 2-[(2′-Chloropyrimidin-4′-yl)-methylamino]ethanol]",decrease fasting blood glucose levels,most potent anti-diabetic compound,significant reduction in blood glucose level,high potency in reducing the blood glucose level,significantly stimulated insulin secretions,stimulated insulin secretion significantly,comparable effects to exenatide,increase glucose-stimulated insulin release,remarkable potential to flush glucose into the βTC6 cells,136,
"OCCNc1ccnc(Cl)n1 [Compound 81f, 2-[(2′-Chloropyrimidin-4′-yl)amino]ethanol]",decrease fasting blood glucose levels,,significant reduction in blood glucose level,,significantly stimulated insulin secretions,stimulated insulin secretion significantly,,increase glucose-stimulated insulin release,remarkable potential to flush glucose into the βTC6 cells,116 to 117,
"CN(CCO)c1cc(Cl)ncn1 [Compound 82c, 2-[(6′-Chloropyrimidin-4′-yl)(methylamino)]ethanol]",decrease fasting blood glucose levels,,statistically significant reduction in blood glucose level,,significantly stimulated insulin secretions,stimulated insulin secretion significantly,,increase glucose-stimulated insulin release,remarkable potential to flush glucose into the βTC6 cells,,
"Clc1cc(N2CCOCC2)ncn1 [Compound 82d, 4-(6′-Chloropyrimidin-4′-yl)morpholine]",decrease fasting blood glucose levels,,,,,,,increase glucose-stimulated insulin release,,,reduced blood glucose levels
